Test results: US9486434B2, “Method for delivery and use of isothiocyanates for prophylaxis and/or therapy of bladder cancer” (Health Research Inc., priority 2010, dated 2016)

Columns and labels:
[1] = system: cyclooxygenase-2 (Cox-2) in human bladder cancer HT1376 cells; assay: Western blot analysis of Cox-2 in HT1376 cells; format: cell-based; conditions: 24 h, cells overexpressing Cox-2
Method: FIG. 5. The effects of AITC and SF on cyclooxygenase-2 (Cox-2) expression in human bladder cancer cells. Human bladder cancer HT1376 cells that over express Cox-2 were treated with AITC or SF at the indicated concentrations for 24 h and then harvested for Western blot analysis of Cox-2. GAPDH is used as a loading control.

UM-UC-3 cells = assay: Mitochondria-mediated apoptosis in UM-UC-3 cells (Δψm, cytochrome c, TUNEL); format: cell-based, human
Method: FIG. 4. Effect of AITC on mitosis, tubulin expression and apoptosis in human bladder cancer UM-UC-3 cells. Cells were treated with vehicle or AITC for 24 h (each numerical value is mean±SD). A. Flow cytometry analysis for cell cycle arrest. B. Wright-Giemsa staining for counting mitotic figures. Arrows point to cells in mitosis or mitotic catastrophe. C. Immunofluorescent staining of microtubules (green color) and DNA staining with DAPI (blue color). D. Western blotting of tubulins (GAPDH as a loading control). E. Loss of mitochondrial transmembrane potential (Δψm) measured by flow cytometry. F. Western blotting of caspase-9 and caspase-3 (GAPDH as a loading control). G. Apoptotic cells (TUNEL cells) measured by flow cytometry. Cells in F and G were co-treated with or without 20 microM Z-LEHD-FMK (a caspase-9 inhibitor).

tubulin = assay: Tubulin polymerization in vitro assay; format: biochemical; conditions: result not shown
[2] = female, F344, rat, in vivo
Method: FIG. 7. Pharmacokinetics of AITC in F344 rats. A & B. Five groups of 4-6 female rats were administered a single oral dose of AITC at 10 or 300 micromols/kg and then kept in metabolism cages for urine collection (1 rat/cage) for 1.5, 3, 6, 12 and 24 h. At the end of each time period, blood was drawn from one group of rats, from which plasma was prepared. C. Rats bearing orthotopic bladder tumors, 3 weeks after AY-27 cell inoculation, were administered a single oral dose of AITC at 300 micromols/kg. Orthotopic tumors were removed from the rats at 0 h (T1), 1.5 h (T2), and 6 h (T3) after AITC dosing. Concentrations of AITC equivalent in plasma, urine and tumor tissue homogenates were determined by the cyclocondensation assay developed in our lab. Each value is a mean±SE.
Rats were administered a single oral dose of AITC at 10 or 300 micromols/kg, and urine and blood were collected at several time intervals up to 24 h. Cyclocondensation assay was used for measurement of AITC equivalent in the samples [12]. Oral administration of AITC led to dose-dependent increase in the levels of AITC equivalent in both plasma and urine (FIGS. 7A & 7B). […]
AITC and NAC-AITC contents in the plasma and urine were determined using the high-performance liquid chromatography (HPLC)-based cyclocondensation assay, and are expressed as AITC equivalent or NAC-AITC equivalent. […]

[3] = system: caspase-3, α-tubulin, β-tubulin, VEGF in AY-27 cells; assay: Western blotting in cultured AY-27 cells; format: cell-based, rat; conditions: NAC-AITC 7.5 and 15 μM, 24 h
Method: FIG. 8. Inhibition of bladder cancer development by MSP-1. Female F344 rats were inoculated with AY-27 cells intravesically via a urethra catheter to initiate development of orthotopic bladder cancer. Oral administration of MSP-1 of vehicle (water) once daily was started 1 day after cancer cell inoculation and ended 3 weeks later. The number of rats per group varied from 11-29. A. Initial (□) and final (▪) body weights. B. Tumor weight was calculated by subtracting the average normal bladder weight from tumor-bearing bladder weight. *P<0.05. Each value in A and B is mean±SEM. C. Percentage of bladder where the tumor invaded the muscle tissue. D. The effects of MSP-1 on selected anticancer targets in UM-UC-3 cells (in vitro), AY-27 cells (in vitro) and AY-27 tumors (in vivo). The cells were treated with MSP-1 at the sinigrin concentrations of 13 and 26 microM for 24 h. The bladder tumors were removed from rats treated with MSP-1 at the sinigrin doses of 9 or 90 micromols/kg once daily for 3 weeks, started 1 day after cancer cell inoculation. Cell lysates and tumor homogenates were analyzed by Western blotting, using GAPDH as a loading control.
FIG. 13. Molecular targets of NAC-AITC in bladder cancer. AY-27 cells in culture were treated with NAC-AITC for 24 h. The results are representative of at least two experiments. The bladder tumors were removed from rats, which were treated with NAC-AITC orally at 10 μmol/kg once daily for 3 weeks, starting 1 day after intravesicular inoculation of AY-27 cells. The results are representative of three to five tumors assayed in each group. Cell lysates and tumor tissue homogenates were analyzed by western blot analysis, using GAPDH as a loading control.
Western blot analysis. Cells after harvest were washed with ice-cold phosphate-buffered saline, suspended in radioimmunoprecipitation assay lysis buffer supplemented with a protease inhibitor cocktail (Sigma-Aldrich) and further lysed by sonication. […]

Compound | effect on Cox-2 expression [1] | TUNEL-positive cells (UM-UC-3 cells; 24 h, flow cytometry) | mitochondrial transmembrane potential (UM-UC-3 cells; 24 h, flow cytometry) | cytochrome c release (UM-UC-3 cells; result not shown) | rate of tubulin polymerization (tubulin) | average 24-h urinary concentration as % of peak urinary concentration [2] | average 24-h urinary concentration relative to plasma concentration at 24 h [2] | VEGF level [3] | caspase-3 cleavage/activation [3] | α-tubulin and β-tubulin levels [3]
C=CCN=C=S [AITC, allyl isothiocyanate] | not detectable | formation of TUNEL-positive cells | caused a loss of mitochondrial transmembrane potential | release of cytochrome c from mitochondria to cytoplasm | no effect | 11.6-45.2% | 4,911-14,501 fold higher | – | – | –
C=CCNC(=S)SC[C@H](NC(C)=O)C(=O)O [NAC-AITC, N-acetyl-S—(N-allylthiocarbamoyl)cysteine] | – | – | – | – | – | – | – | downregulation | dose-dependent cleavage/activation | downregulation
